Test results as given in US10537541B2, “Treatment of focal segmental glomerular sclerosis (FSGS) using therapeutically effective oral doses of 10-nitro-9(E)-octadec-9-enoic acid” (Complexa, Inc., priority 2015, dated 2020).

Tests used:
obese male subjects = assay: Multiple ascending dose study in obese males: safety and tolerability; type: in vivo, human; conditions: for GI adverse events, number (percentage) of subjects / General Disorders adverse events, number (percentage) of subjects / Muscle and CT disorders adverse events, number (percentage) of subjects / Nervous System adverse events, number (percentage) of subjects / Skin and SQ disorders adverse events, number (percentage) of subjects: n = 10
From the text: The primary endpoints of this study included safety and tolerability, pharmacokinetics, and biomarkers. The safety and tolerability included physical examinations, adverse event (AE) reporting, vital signs (blood pressure, heart rate, respiratory rate), clinical laboratory values (hematology, biochemistry, and urinalysis) including serum magnesium and creatine phosphokinase (CPK), 12-lead electrocardiograms (ECGs) for safety assessments and QTcF measured on ECGs extracted from cardiac Holter monitoring. The pharmacokinetic measurements included maximum observed plasma drug concentration (Cmax), time to maximum plasma drug concentration (Tmax), terminal phase half-life (t½), area under the plasma drug concentration versus time curve (AUC0-last, AUC0-∞), clearance (CL/F), volume of distribution (Vd/F) and terminal elimination rate constant (λz).
This was a single-center, randomized, double-blind, placebo-controlled study of sequential multiple ascending doses of oral CXA-10 in obese male subjects. Eligible subjects included obese males age 19 to 57 years and BMI 27.0 to 39.5 kg/m^2. CXA-10 and placebo were provided as solutions in hard shell capsules. Three (3) cohorts of subjects were dosed once daily with CXA-10 for 14 days. The doses administered in this study were 25, 150 and 450 mg. Subjects enrolled in the highest dose level (450 mg) were administered 600 mg on day 1 then 450 mg for 13 days. This cohort (cohort 3) was given the option to receive an additional 450 mg dose on day 15 with a high fat (50%) breakfast.
Each cohort of subjects was randomized to receive CXA-10 (10 subjects) or placebo (4 or 5 subjects). Safety, pharmacokinetic (PK) and pharmacodynamic (PD) assessments were evaluated throughout the study. The last study visit occurred on Day 28. All subjects remained in the unit during the treatment period and were discharged approximately 24 hours after the last dose was administered. Food restrictions were incorporated to minimize variability in biomarker evaluation and body weight.
Subjects remained at the unit until discharge on Day 15 after assessments were completed and reviewed. […] They remained in the unit until Day 16 (24 h after last dose on Day 15) before being discharged from the unit. The additional procedures on Day 15 and Day 16 were optional for subjects in cohort 3.
Safety and tolerability was evaluated throughout the study. Continuous Holter monitoring was performed on Days −1 and on Day 14 in all three cohorts. Continuous Holter monitoring could also be performed at highest dose cohort on an additional day between Days 2 and 4. The decision to conduct Holter monitoring and the actual day of the additional monitoring was determined based on emerging data.

[1] = system: deoxycorticosterone acetate (DOCA)/salt-induced model of FSGS; assay: DOCA salt study: RT-PCR analysis of kidney gene expression; type: in vivo, mice (129/sv strain); conditions: DOCA/salt mice kidney; for Nephrin gene expression / Podocin gene expression: normalized to 18S, fold changes to control group, mean ± SEM; for gene expression of MCP-1, osteopontin, collagen III, fibronectin and PAI-1 (mRNA, qRT-PCR): 4 weeks
Description: Induction of model: Male mice (129/sv strain) were purchased from Taconic Labs. The animals were uninephrectomized (Unx) at 6 weeks of age by the vendor and shipped one week after surgery. At 2 weeks post Unx, a DOCA or placebo pellet (21-day release pellets, 50 mg/pellet, Innovative Research of America, Sarasota, Fla.) was implanted s.c. All mice were then placed on a semisynthetic diet which contained a moderate fat content and a low phytoestrogen/anti-oxidant level, which approximates a normal human diet (4). A second DOCA or placebo pellet was implanted three weeks later.
Treatment: Mice were treated with placebo, 10-nitro-9(E)-octadec-9-enoic acid at a dose of 2.5 and 12.5 mg/kg, or enalapril (standard of care) for 4 weeks by oral gavage starting 2 weeks after the first DOCA implantation. One percent NaCl in tap water was given to each group except the sham control group. Body weight was measured weekly, and doses were readjusted based on the current body weight. Urine and blood samples were collected prior to treatment and at week 2 and 4 of treatment. Mice were terminated at week 4. Data is presented as the mean+SEM for the number of animals listed in each group.
RT-PCR Analysis of Gene Expression: A slice of kidney from each mouse was placed in Trizol solution (Invitrogen) immediately after harvesting and stored at −80° C. until analysis. Tissues were homogenized using a bead mill in 0.5 ml of Trizol solution and total RNA was extracted with chloroform (Sigma) and purified using standard RNeasy mini kit (Qiagen), with on column DNase 1 (Qiagen) digestion to avoid non-specific fluorescence emission derived from the recognition of contaminating genomic DNA by the probe, according to manufacturer's recommendation. RNA samples were eluted in 30 μl of nuclease-free water and quantified using a Nanodrop. cDNA was generated from 2 μg of RNA by using Clontech Sprint PowerScript reagents according to manufacturer's protocol. Fluorogenic probes specific for genes assayed in the report were purchased from Applied Biosystems. PCR amplification and analysis of PCR reaction were performed and monitored using an ABI Prism 7900HT Sequence Detection System (TaqMan, Perkin-Elmer Applied Biosystem). Data analysis was carried out by using the Sequence Detection Systems v2.3 program (Applied Biosystems). For each cDNA sample the Ct value of each target sequence was normalized to reference gene (Ribosomal RNA-18S), and shown as fold changes to control group. Statistical analyses for gene expression data was performed using a two-tailed Student's t-test.

[2] = Cohort 1, 25 mg once daily 14 days
[3] = Cohort 2, 150 mg once daily 14 days
[4] = Cohort 3, 450 mg once daily (600 mg on day 1)
[5] = obese males, 25-450 mg once daily

## CCCCCCCC/C(=C\CCCCCCCC(=O)O)[N+](=O)[O-] [CXA-10, 10-nitro-9(E)-octadec-9-enoic acid]
Obese male subjects; 450 mg
  HBG, HCT and RBC concentration during treatment compared to placebo treated subjects: slight decrease
Obese male subjects; Cohort 1 (25 mg)
  GI related AEs: subjects with nausea: 1 subject had nausea subjects
Obese male subjects; [2]
  GI adverse events, number (percentage) of subjects: 2 (20%)
  General Disorders adverse events, number (percentage) of subjects: 1 (10%)
  Muscle and CT disorders adverse events, number (percentage) of subjects: 2 (20%)
  Nervous System adverse events, number (percentage) of subjects: 0 (0%)
  Skin and SQ disorders adverse events, number (percentage) of subjects: 2 (20%)
Obese male subjects; Cohort 2 (150 mg)
  GI related AEs: subjects with diarrhea: 5 subjects had diarrhea: 1 subject had diarrhea ~2 hr
Obese male subjects; [3]
  GI adverse events, number (percentage) of subjects: 5 (50%)
  General Disorders adverse events, number (percentage) of subjects: 0 (0%)
  Muscle and CT disorders adverse events, number (percentage) of subjects: 0 (0%)
  Nervous System adverse events, number (percentage) of subjects: 1 (10%)
  Skin and SQ disorders adverse events, number (percentage) of subjects: 0 (0%)
Obese male subjects; Cohort 3 (450 mg w food)
  GI related AEs: subjects with diarrhea: 3 subjects
  GI related AEs: subjects with nausea: 1 subjects
Obese male subjects; Cohort 3 (450 mg)
  GI related AEs: subjects with diarrhea: 9 subjects
  GI related AEs: subjects with nausea: 4 subjects
Obese male subjects; [4]
  GI adverse events, number (percentage) of subjects: 9 (90%)
  General Disorders adverse events, number (percentage) of subjects: 3 (30%)
  Muscle and CT disorders adverse events, number (percentage) of subjects: 2 (20%)
  Nervous System adverse events, number (percentage) of subjects: 4 (40%)
  Skin and SQ disorders adverse events, number (percentage) of subjects: 1 (10%)
Obese male subjects; [5]
  CPK (muscle enzyme) or magnesium serum levels: no abnormalities
  QTc interval (routine ECG after dosing for 15 days; ECG extraction from continuous 24-hour Holter monitoring): no prolongation of QTc interval
  clinical laboratory, vital signs or ECG evaluations: no clinically significant findings
Obese male subjects; obese males, oral once daily
  time to resolution of diarrhea: ≤ 4 h
Obese male subjects; obese males, did not worsen with increasing dose
  intensity of diarrhea (grade): grade 1 or 2
[1]; 2.5 mpk
  Nephrin gene expression: 1.264 ± 0.0789
  Podocin gene expression: 1.077 ± 0.123
[1]; 12.5 mpk
  Nephrin gene expression: 1.313 ± 0.15
  Podocin gene expression: 1.117 ± 0.084
[1]; high dose 12.5 mg/kg p.o. QD
  gene expression of MCP-1, osteopontin, collagen III, fibronectin and PAI-1 (mRNA, qRT-PCR): neither the high dose 10-nitro-9(E)-octadec-9-enoic acid nor enalapril had an effect
[1]; low dose 2.5 mg/kg p.o. QD
  gene expression of MCP-1, osteopontin, collagen III, fibronectin and PAI-1 (mRNA, qRT-PCR): inhibited these genes
